Assay results taken from patent US12037344B2, “NLRP3 modulators” (INNATE TUMOR IMMUNITY, INC., priority 2018, dated 2024).
Values belong to the compound of their own block, whether it stands above or below them.

Tests used:
TLR8 = target: T1, TLR8 (Homo sapiens, UniProt Q9NR97); test: In vitro human TLR8 binding reporter assay (HEK-Blue, NF-kB/AP1-inducible SEAP); format: cell-based; settings: activity range class, read-out: TLR8 Agonist EC50
T1 construct: human HEK-Blue cells co-expressing a TLR7 or TLR8 gene
T1 sequence (Q9NR97 27-1041): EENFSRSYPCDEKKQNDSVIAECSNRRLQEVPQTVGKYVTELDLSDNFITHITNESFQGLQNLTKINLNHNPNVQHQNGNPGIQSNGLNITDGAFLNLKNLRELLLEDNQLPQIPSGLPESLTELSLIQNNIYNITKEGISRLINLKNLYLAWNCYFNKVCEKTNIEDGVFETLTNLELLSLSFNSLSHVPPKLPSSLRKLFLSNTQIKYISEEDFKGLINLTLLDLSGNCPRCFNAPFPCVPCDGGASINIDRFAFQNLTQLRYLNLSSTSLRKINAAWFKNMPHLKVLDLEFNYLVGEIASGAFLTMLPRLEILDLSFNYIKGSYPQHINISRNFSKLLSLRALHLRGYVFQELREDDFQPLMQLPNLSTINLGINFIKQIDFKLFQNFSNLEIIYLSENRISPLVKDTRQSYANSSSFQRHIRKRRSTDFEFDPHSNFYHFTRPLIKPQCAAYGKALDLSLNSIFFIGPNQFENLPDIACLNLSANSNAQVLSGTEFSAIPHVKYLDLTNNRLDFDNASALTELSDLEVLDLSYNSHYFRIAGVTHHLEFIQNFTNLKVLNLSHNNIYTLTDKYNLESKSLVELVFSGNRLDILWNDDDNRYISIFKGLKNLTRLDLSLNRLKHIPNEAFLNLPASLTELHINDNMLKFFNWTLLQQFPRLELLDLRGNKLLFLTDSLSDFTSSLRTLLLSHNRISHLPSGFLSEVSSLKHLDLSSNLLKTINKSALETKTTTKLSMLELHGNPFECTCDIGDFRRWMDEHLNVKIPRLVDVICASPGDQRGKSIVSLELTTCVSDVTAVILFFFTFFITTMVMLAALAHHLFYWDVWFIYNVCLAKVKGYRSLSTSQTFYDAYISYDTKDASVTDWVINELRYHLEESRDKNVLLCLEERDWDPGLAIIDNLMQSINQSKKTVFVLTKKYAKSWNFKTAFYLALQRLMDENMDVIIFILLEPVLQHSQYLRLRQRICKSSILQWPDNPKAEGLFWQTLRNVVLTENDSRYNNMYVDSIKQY
Outline: (§1)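 EC50s come from NF-kB/AP1-driven SEAP secretion in HEK-Blue cells expressing TLR7 or TLR8, measured with Quanti-Blue after an 18 h compound incubation. Maximal response is defined by a 50 μM reference standard.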

THP-1 cells = test: Measurement of IL-1β production, hTRF protocol (second alternative procedure), THP-1 cells; format: cell-based, human; settings: Homo sapiens, THP-1, IL-1β production, human; read-out: NLRP3 hILIB EC50
Outline: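 THP-1 cells differentiated overnight with 50 ng/ml PMA, then plated at 50,000 cells/well in RPMI with 2% FBS onto serial compound dilutions (top final concentration 10 μM) for 2 hours at 37° C. Supernatant IL-1β measured by hTRF (antibodies at 1:40, overnight at 4° C), read at 665/615 nm against a standard curve.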

TLR7 = target: T2, TLR7 (Homo sapiens, UniProt Q9NYK1); test: In vitro human TLR7 binding reporter assay (HEK-Blue, NF-kB/AP1-inducible SEAP); format: cell-based; settings: activity range class, read-out: TLR7 Agonist EC50
T2 construct: human HEK-Blue cells co-expressing a TLR7 or TLR8 gene
T2 sequence (Q9NYK1 27-1049): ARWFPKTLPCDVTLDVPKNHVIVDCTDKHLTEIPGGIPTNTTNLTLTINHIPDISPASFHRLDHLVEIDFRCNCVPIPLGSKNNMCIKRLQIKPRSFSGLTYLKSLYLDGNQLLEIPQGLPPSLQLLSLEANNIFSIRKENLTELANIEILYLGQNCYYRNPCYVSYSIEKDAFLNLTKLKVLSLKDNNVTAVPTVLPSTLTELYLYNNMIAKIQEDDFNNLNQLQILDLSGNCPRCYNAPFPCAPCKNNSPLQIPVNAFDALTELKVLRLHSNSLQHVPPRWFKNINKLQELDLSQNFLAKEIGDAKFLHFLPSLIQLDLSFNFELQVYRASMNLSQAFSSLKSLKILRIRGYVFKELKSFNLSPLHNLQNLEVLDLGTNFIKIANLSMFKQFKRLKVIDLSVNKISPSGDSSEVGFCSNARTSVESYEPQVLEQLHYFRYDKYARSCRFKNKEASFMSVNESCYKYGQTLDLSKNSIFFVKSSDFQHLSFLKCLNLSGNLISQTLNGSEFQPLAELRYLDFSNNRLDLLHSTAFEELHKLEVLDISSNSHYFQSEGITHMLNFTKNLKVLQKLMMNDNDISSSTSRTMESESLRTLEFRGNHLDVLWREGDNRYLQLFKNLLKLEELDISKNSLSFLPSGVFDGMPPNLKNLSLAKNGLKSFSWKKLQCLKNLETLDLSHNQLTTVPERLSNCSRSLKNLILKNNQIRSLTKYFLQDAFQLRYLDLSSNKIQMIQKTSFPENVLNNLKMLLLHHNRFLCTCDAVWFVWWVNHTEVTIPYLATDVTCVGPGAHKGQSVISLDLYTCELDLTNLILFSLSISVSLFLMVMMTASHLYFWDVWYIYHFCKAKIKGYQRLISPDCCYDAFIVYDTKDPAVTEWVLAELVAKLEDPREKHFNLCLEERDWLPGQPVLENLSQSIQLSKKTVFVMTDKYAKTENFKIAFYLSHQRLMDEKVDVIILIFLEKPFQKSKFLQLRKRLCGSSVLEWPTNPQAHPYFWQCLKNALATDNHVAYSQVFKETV
Outline: as §1

SMILES: Nc1nc2cc(-c3cc[nH]n3)c(Cl)cc2c2cn(CCNC(=O)c3ccc(F)cn3)nc12 [Example 195, N-(2-(4-amino-8-chloro-7-(1H-pyrazol-3-yl)-2H-pyrazolo[3,4-c]quinolin-2-yl)ethyl)-5-fluoropicolinamide]
EC50 (TLR8): 20 to 100 µM | EC50 (THP-1 cells): 2.15 µM | EC50 (TLR7): > 100 µM

SMILES: Nc1nc2cc(-c3cc[nH]n3)ccc2c2nn(CCNC(=O)c3ccc(F)cn3)cc12 [Example 196]
EC50 (TLR8): > 100 µM | EC50 (THP-1 cells): 0.18 µM | EC50 (TLR7): > 100 µM

SMILES: Nc1nc2cc(-c3cc[nH]n3)ccc2c2nn(CCNC(=O)c3cc(Cl)ccn3)cc12 [Example 197]
EC50 (TLR8): > 100 µM | EC50 (THP-1 cells): 0.25 µM | EC50 (TLR7): > 100 µM

SMILES: Cc1nc(C(=O)NCCn2cc3c(N)nc4cc(-c5cc[nH]n5)ccc4c3n2)co1 [Example 198]
EC50 (TLR8): > 100 µM | EC50 (THP-1 cells): 0.11 µM | EC50 (TLR7): > 100 µM

SMILES: Nc1nc2cc(-c3cc[nH]n3)ccc2c2nn(CCNC(=O)C3CCCCO3)cc12 (stereo not drawn) [Example 199]
EC50 (TLR8): > 100 µM | EC50 (THP-1 cells): 4.44 µM | EC50 (TLR7): > 100 µM

SMILES: Nc1nc2cc(-c3cc[nH]n3)ccc2c2nn(CCNC(=O)c3ccccc3)cc12 [Example 200]
EC50 (TLR8): > 100 µM | EC50 (THP-1 cells): 0.57 µM | EC50 (TLR7): > 100 µM

SMILES: Nc1nc2cc(-c3cc[nH]n3)ccc2c2nn(CCNC(=O)c3cnccn3)cc12 [Example 201]
EC50 (TLR8): > 100 µM | EC50 (THP-1 cells): 0.48 µM | EC50 (TLR7): > 100 µM

SMILES: COc1ccc(C(=O)NCCn2cc3c(N)nc4cc(-c5cc[nH]n5)ccc4c3n2)nc1 [Example 202]
EC50 (TLR8): > 100 µM | EC50 (THP-1 cells): 0.66 µM | EC50 (TLR7): > 100 µM

SMILES: CC(C)(F)C(=O)NCCn1cc2c(N)nc3cc(-c4cc[nH]n4)ccc3c2n1 [Example 203]
EC50 (TLR8): > 100 µM | EC50 (THP-1 cells): 3.49 µM | EC50 (TLR7): > 100 µM

SMILES: Nc1nc2cc(-c3cc[nH]n3)ccc2c2nn(CCNC(=O)c3cccnc3)cc12 [Example 204]
EC50 (TLR8): > 100 µM | EC50 (THP-1 cells): 2.6 µM | EC50 (TLR7): > 100 µM

SMILES: Nc1nc2cc(-c3cc[nH]n3)ccc2c2nn(CCN3Cc4ccc(F)cc4C3=O)cc12 [Example 205, 2-(2-(4-amino-7-(1H-pyrazol-3-yl)-2H-pyrazolo[4,3-c]quinolin-2-yl)ethyl)-6-fluoroisoindolin-1-one]
EC50 (TLR8): > 100 µM | EC50 (THP-1 cells): 2.04 µM | EC50 (TLR7): > 100 µM

More lines, now with the values ahead:

EC50 (TLR8): > 100 µM | EC50 (THP-1 cells): 0.26 µM | EC50 (TLR7): > 100 µM
SMILES: CS(=O)(=O)NCCn1cc2c(N)nc3cc(-c4cc[nH]n4)ccc3c2n1 [Example 206, N-(2-(4-amino-7-(1H-pyrazol-3-yl)-2H-pyrazolo[4,3-c]quinolin-2-yl)ethyl)methanesulfonamide]

EC50 (TLR8): > 100 µM | EC50 (THP-1 cells): 0.14 µM | EC50 (TLR7): > 100 µM
SMILES: COCCn1cc2c(N)nc3cc(-c4cc[nH]n4)ccc3c2n1 [Example 207, 2-(2-methoxyethyl)-7-(1H-pyrazol-3-yl)-2H-pyrazolo[4,3-c]quinolin-4-amine]

EC50 (TLR8): > 100 µM | EC50 (THP-1 cells): 0.49 µM | EC50 (TLR7): > 100 µM
SMILES: COCCn1ncc2c(N)nc3cc(-c4cc[nH]n4)ccc3c21 [Example 208, 1-(2-methoxyethyl)-7-(1H-pyrazol-3-yl)-1H-pyrazolo[4,3-c]quinolin-4-amine]

EC50 (TLR8): > 100 µM | EC50 (THP-1 cells): 0.19 µM | EC50 (TLR7): > 100 µM
SMILES: Nc1nc2cc(-c3cc[nH]n3)ccc2c2nn(CCO)cc12 [Example 209, 2-(4-amino-7-(1H-pyrazol-3-yl)-2H-pyrazolo[4,3-c]quinolin-2-yl)ethan-1-ol]

EC50 (TLR8): > 100 µM | EC50 (THP-1 cells): 0.63 µM | EC50 (TLR7): > 100 µM
SMILES: CS(=O)(=O)CCCn1cc2c(N)nc3cc(-c4cc[nH]n4)ccc3c2n1 [Example 211]

EC50 (TLR8): > 100 µM | EC50 (THP-1 cells): 4.37 µM | EC50 (TLR7): > 100 µM
SMILES: CS(=O)(=O)CCCn1ncc2c(N)nc3cc(-c4cc[nH]n4)ccc3c21 [Example 212]
